Test results taken from patent US20150265584A1, “LEVUGLANDIN ADDUCTS HISTONE H4 IN A CYCLOOXYGENASE-2-DEPENDENT MANNER, ALTERING ITS INTERACTION WITH DNA” (VANDERBILT UNIVERSITY, priority 2014, published 2015).

What was measured:
[1] = system: RAW264.7 cells; assay: LG-lysyl adduct formation on histones in COX-2-stimulated, AA-treated RAW264.7 cells (LC/ESI/MS/MS); assay type: cell-based, mouse; details: for LG adduct formation on histones (LG-lysyl lactam adduct): 500 μM scavenger pretreated 45 min, 20 μM AA 1 h, n=2
Experimental: (§1) To stimulate COX-2 expression, A549 or RAW264.7 cells were treated overnight with 5 ng/mL IL-1β (A549) or 10 μg/mL LPS and 10 U/mL IFNγ (RAW264.7) in serum-free medium. When indicated, cells were pretreated with indomethacin, aldehyde scavengers (glucosamine, 3-MoSA, PPM or EtSA), or vehicle (ethanol for indomethacin, H2O for scavengers) for 45 min, and then given 20 μM arachidonic acid (AA) or DMSO vehicle for 1 h before lysing.
Cultured cells were lysed in hypotonic buffer (10 mM Tris/10 mM NaCl/3 mM MgCl2) containing 1 mM pyridoxamine and 100 μM indomethacin to prevent the artifactual formation of LGE2 during the lytic process. After letting cells swell on ice, membranes were disrupted by addition of Triton X-100 (0.5% final concentration) and vortexing. Nuclei were isolated by centrifugation for 10 min at 1000×g, and the resulting pellet washed with PBS. Histones were extracted in 0.4 N H2SO4, precipitated with trichloracetic acid, and washed with acetone. […] Histones were resolubilized in dilute NaOH, and pH neutralized with HCl. Protein concentration was determined using the method of Bradford. For tissue, a portion of frozen liver was homogenized in buffer containing 40 mM sodium citrate, and 1% Triton X-100 with 3 mM Trolox and 100 μM indomethacin. The supernatant was separated from settled debris, and nuclei were pelleted at 500×g and washed. Nuclear pellets were frequently transferred to fresh tubes to avoid contamination by floating lipid debris; any remaining was removed with a cotton swab. Histones were extracted as above. All centrifugation steps were carried out at 4° C.
Histone samples were prepared for mass spectrometry by addition of ammonium bicarbonate to 5 mM final concentration before digesting to single amino acids by protease step-digestion as previously described. In the case of immunoblots, proteins were digested directly off the nitrocellulose through incubation of the nitrocellulose strip in 30 μg/mL Pronase in ammonium bicarbonate buffer, and later addition of aminopeptidase. All samples were centrifuged at 2000×g for 10 min. after final digestion to remove precipitate, spiked with 0.2 ng ^13C-lysyl-lactam internal standard, and purified on prepared tC18 cartridges (Waters Corp., Milford, Mass.). Samples on tC18 cartridges were washed with water, then 30% methanol, before being eluted in 80% methanol and concentrated by evaporation. Samples were evaluated by electrospray ionization (ESI) LC/MS/MS on a ThermoFisher TSQ Quantum triple quadrapole mass spectrometer in positive ion mode and quantitated by isotopic dilution as previously described, with the exception of a reduced flow rate of 0.1 mL/min.

[2] = system: A549 cells; assay: LG-lysyl adduct formation on histones in COX-2-stimulated, AA-treated A549 cells (LC/ESI/MS/MS); assay type: cell-based, human
Experimental: as §1
Cultured cells were lysed in hypotonic buffer (10 mM Tris/10 mM NaCl/3 mM MgCl2) containing 1 mM pyridoxamine and 100 μM indomethacin to prevent the artifactual formation of LGE2 during the lytic process. After letting cells swell on ice, membranes were disrupted by addition of Triton X-100 (0.5% final concentration) and vortexing. […] Protein concentration was determined using the method of Bradford. […]
Histone samples were prepared for mass spectrometry by addition of ammonium bicarbonate to 5 mM final concentration before digesting to single amino acids by protease step-digestion as previously described. […] Samples were evaluated by electrospray ionization (ESI) LC/MS/MS on a ThermoFisher TSQ Quantum triple quadrapole mass spectrometer in positive ion mode and quantitated by isotopic dilution as previously described, with the exception of a reduced flow rate of 0.1 mL/min.

[3] = system: COX-2; assay: PGE2 production in cell media as measure of COX-2 activity (GC/MS), A549 cells; assay type: cell-based, human
Experimental: as §1
A sample of cellular media was taken just prior to lysis and centrifuged to remove any cellular debris. For PGE2 analysis, samples were spiked with 2 ng of [^2H7] PGE2 as an internal standard. Prostaglandins were isolated and derivatized for analysis by GC/MS, operating in negative ion chemical ionization (NICI) mode and monitoring selected ions as previously described. For the […] internal standard, m/z=528. To account for the deuterium-protium exchange at the position C12 of [^2H7] PGE2, the summation of the signals obtained at m/z=530, m/z=531 and m/z=532 was performed.

[4] = system: histone H4; assay: Salt extraction of A549 nuclei, histone H4 solubility (Western blot); assay type: cell-based, human; details: A549 cells, 500 μM EtSA 45 min prior to 20 μM AA; 0.6-1.2 M NaCl
Experimental: 60-80% confluent A549 cells were stimulated and treated with AA±500 μM EtSA before scraping cells in lysis media for nuclear isolation as above. After addition of Tritox X-100 and vortexing, 1.5 mL of each sample was aliquoted into an eppendorf and centrifuged to separate nuclei. Pellets were washed with PBS and all buffer removed. Nuclear pellets were resuspended in extraction buffer containing 0.6M, 0.9M, 1.2M or 1.5M NaCl (with 10 mM Tris, pH 7.5, 3 mM MgCl2, 0.5% NP-40, and protease inhibitor cocktail) and incubated 10 min on ice. Following this extraction period, the nuclei were centrifuged at 16,000×g to obtain the soluble fraction. This was sonicated, denatured at 95° C., and analyzed by SDS-PAGE and Western blotting, using Ponceau stain to visualize proteins and confirm equal loading, and anti-H4 antibody (Abcam, Cambridge, Mass.).

Compound: CCc1ccc(O)c(CN)c1 [EtSA, 5-ethylsalicylamine]
- LG adduct formation on histones (LG-lysyl lactam adduct) ([1]; RAW264.7 cells): most effectively blocked adduct formation
- protecting histones from modification by levuglandins, comparison with other scavengers ([1]; in comparison with salicylamine, pyridoxamine and their other analogues): most potent in protecting histones from modification by levuglandins
- LG-histone adduct formation ([2]; stimulated A549 cells, 30, 300 or 1000 μM EtSA, 20 μM AA 1 h): inhibited LG-histone adduct formation
- PGE2 production ([3]; highest concentration tested (1000 μM EtSA), 20 μM AA 1 h): without affecting PGE2 production
- PGE2 production ([3]; lower doses of EtSA (data not shown)): no effect on PGE2 production
- histone H4 elution at lower salt concentrations (DNA-histone interaction) [4]: reversed

Compound: COc1ccc2c(c1)c(CC(=O)O)c(C)n2C(=O)c1ccc(Cl)cc1 [indomethacin, reference compound]
- LG-histone adduct formation ([1]; RAW264.7 cells, 50 μM indomethacin preincubated 45 min, 20 μM AA): blocked
- LG-histone adduct formation ([2]; A549 cells, 50 μM indomethacin preincubated 45 min, 20 μM AA): blocked

Compound: pentylpyridoxamine [PPM, reference compound]
- LG adduct formation on histones (LG-lysyl lactam adduct) ([1]; RAW264.7 cells): partially inhibited histone adduct formation, but was much less potent than 5-ethylsalicylamine
